Entries after “also recorded” stand apart in the source; their conditions may differ.
Assays:
Huh-5-2 cells [1] = assay: MTS assay of antimetabolic effect, Huh-5-2; assay type: cell-based; conditions: data not shown
[2] = tested on: genotype 1b HCV subgenomic replicon in Huh-5-2 cells; assay type: cell-based, hepatitis C virus
Huh-5-2 cells [3] = assay: microscopic examination of cell morphology in the replicon assay; assay type: cell-based; conditions: 72 h of compound treatment
recombinant NS5BCΔ21 1b = recombinant NS5BCΔ21 1b (Hepatitis C virus genotype 1b, UniProt O92972); assay: NS5B primer dependent elongation; assay type: biochemical; conditions: for inhibition at 50 µM: read-out: inhibition of NS5B RdRp activity, screen at 50 μM

Structure (SMILES) | antimetabolic effect after dose–response curve analysis (Huh-5-2 cells [1]) | assessment of anti-HCV activity in the replicon assay (in words) [2] | anti-NS5B activity (in words) (recombinant NS5BCΔ21 1b) | inhibition at 50 µM (recombinant NS5BCΔ21 1b) | other results
CN1c2c(C(=O)Nc3ccc(NS(C)(=O)=O)cc3)nn(-c3ccccc3Cl)c2-c2ccccc2S1(=O)=O [2c, 1-(2-Chlorophenyl)-4-methyl-N-{4-[(methylsulfonyl)amino]phenyl}-1,4-dihydropyrazolo[4,3-c][1,2]benzothiazine-3-carboxamide 5,5-Dioxide] | displayed antimetabolic effect |  |  |  | 
CN1c2c(C(=O)Nc3ccc(NS(C)(=O)=O)cc3)nn(-c3cccc(Br)c3)c2-c2ccccc2S1(=O)=O [2d, 1-(3-Bromophenyl)-4-methyl-N-{4-[(methylsulfonyl)amino]phenyl}-1,4-dihydropyrazolo[4,3-c][1,2]benzothiazine-3-carboxamide 5,5-Dioxide] |  | selective anti-HCV activity without any antimetabolic effect |  |  | 
CN1c2c(C(=O)Nc3ccc(NS(C)(=O)=O)cc3)nn(-c3ccc(Br)cc3)c2-c2ccccc2S1(=O)=O [2e, 1-(4-Bromophenyl)-4-methyl-N-{4-[(methylsulfonyl)amino]phenyl}-1,4-dihydropyrazolo[4,3-c][1,2]benzothiazine-3-carboxamide 5,5-Dioxide] |  | selective anti-HCV activity without any antimetabolic effect |  |  | 
CN1c2c(C(=O)Nc3ccc(NS(C)(=O)=O)cc3)nn(-c3ccccc3Br)c2-c2ccccc2S1(=O)=O [2f, 1-(2-Bromophenyl)-4-methyl-N-{4-[(methylsulfonyl)amino]phenyl}-1,4-dihydropyrazolo[4,3-c][1,2]benzothiazine-3-carboxamide 5,5-Dioxide] |  | false positives |  |  | 
Cc1cccc(-n2nc(C(=O)Nc3ccc(NS(C)(=O)=O)cc3)c3c2-c2ccccc2S(=O)(=O)N3C)c1 [2g, 4-Methyl-1-(3-methylphenyl)-N-{4-[(methylsulfonyl)amino]phenyl}-1,4-dihydropyrazolo[4,3-c][1,2]benzothiazine-3-carboxamide 5,5-Dioxide] |  | selective anti-HCV activity without any antimetabolic effect |  |  | 
Cc1ccc(-n2nc(C(=O)Nc3ccc(NS(C)(=O)=O)cc3)c3c2-c2ccccc2S(=O)(=O)N3C)cc1 [2h, 4-Methyl-1-(4-methylphenyl)-N-{4-[(methylsulfonyl)amino]phenyl}-1,4-dihydropyrazolo[4,3-c][1,2]benzothiazine-3-carboxamide 5,5-Dioxide] |  | selective anti-HCV activity without any antimetabolic effect |  |  | effect on cell morphology (microscopic analysis) (Huh-5-2 cells [3]): did not display any significant effects on cell morphology; also recorded: did not display any antimetabolic and cell morphology alteration effects
Cc1ccccc1-n1nc(C(=O)Nc2ccc(NS(C)(=O)=O)cc2)c2c1-c1ccccc1S(=O)(=O)N2C [2i, 4-Methyl-1-(2-methylphenyl)-N-{4-[(methylsulfonyl)amino]phenyl}-1,4-dihydropyrazolo[4,3-c][1,2]benzothiazine-3-carboxamide 5,5-Dioxide] | displayed antimetabolic effect |  |  |  | 
COc1cccc(-n2nc(C(=O)Nc3ccc(NS(C)(=O)=O)cc3)c3c2-c2ccccc2S(=O)(=O)N3C)c1 [2j, 1-(3-Methoxyphenyl)-4-methyl-N-{4-[(methylsulfonyl)amino]phenyl}-1,4-dihydropyrazolo[4,3-c][1,2]benzothiazine-3-carboxamide 5,5-Dioxide] |  |  | inactive | < 50% | 
COc1ccc(-n2nc(C(=O)Nc3ccc(NS(C)(=O)=O)cc3)c3c2-c2ccccc2S(=O)(=O)N3C)cc1 [2k, 1-(4-Methoxyphenyl)-4-methyl-N-{4-[(methylsulfonyl)amino]phenyl}-1,4-dihydropyrazolo[4,3-c][1,2]benzothiazine-3-carboxamide 5,5-Dioxide] |  | selective anti-HCV activity without any antimetabolic effect | inactive | < 50% | effect on cell morphology (microscopic analysis) (Huh-5-2 cells [3]): did not display any significant effects on cell morphology
CN1c2c(C(=O)Nc3ccc(NS(C)(=O)=O)cc3)nn(-c3cccc(C(F)(F)F)c3)c2-c2ccccc2S1(=O)=O [2l, 4-Methyl-N-{4-[(methylsulfonyl)amino]phenyl}-1-[3-(trifluoromethyl)phenyl]-1,4-dihydropyrazolo[4,3-c][1,2]benzothiazine-3-carboxamide 5,5-Dioxide] |  | selective anti-HCV activity without any antimetabolic effect |  | ≥ 50% | 
CN1c2c(C(=O)Nc3ccc(NS(C)(=O)=O)cc3)nn(-c3ccc(C(F)(F)F)cc3)c2-c2ccccc2S1(=O)=O [2m, 4-Methyl-N-{4-[(methylsulfonyl)amino]phenyl}-1-[4-(trifluoromethyl)phenyl]-1,4-dihydropyrazolo[4,3-c][1,2]benzothiazine-3-carboxamide 5,5-Dioxide] | displayed antimetabolic effect |  |  | ≥ 50% | 
CN1c2c(C(=O)Nc3ccc(NS(C)(=O)=O)cc3)nn(-c3ccccc3C(F)(F)F)c2-c2ccccc2S1(=O)=O [2n, 4-Methyl-N-{4-[(methylsulfonyl)amino]phenyl}-1-[2-(trifluoromethyl)phenyl]-1,4-dihydropyrazolo[4,3-c][1,2]benzothiazine-3-carboxamide 5,5-Dioxide] |  |  |  | < 50% | 
CN1c2c(C(=O)Nc3ccc(NS(C)(=O)=O)cc3)nn(-c3ccc(F)c(F)c3)c2-c2ccccc2S1(=O)=O [2o, 1-(3,4-Difluorophenyl)-4-methyl-N-{4-[(methylsulfonyl)amino]phenyl}-1,4-dihydropyrazolo[4,3-c][1,2]benzothiazine-3-carboxamide 5,5-Dioxide] |  | false positives | less active than compound 1 | ≥ 50% | 
CN1c2c(C(=O)Nc3ccc(NS(C)(=O)=O)cc3)nn(-c3ccc(Cl)c(Cl)c3)c2-c2ccccc2S1(=O)=O [2p, 1-(3,4-Dichlorophenyl)-4-methyl-N-{4-[(methylsulfonyl)amino]phenyl}-1,4-dihydropyrazolo[4,3-c][1,2]benzothiazine-3-carboxamide 5,5-Dioxide] | displayed antimetabolic effect |  |  | ≥ 50% | 
Cc1ccc(-n2nc(C(=O)Nc3ccc(NS(C)(=O)=O)cc3)c3c2-c2ccccc2S(=O)(=O)N3C)cc1C [2q, 1-(3,4-Dimethylphenyl)-4-methyl-N-{4-[(methylsulfonyl)amino]phenyl}-1,4-dihydropyrazolo[4,3-c][1,2]benzothiazine-3-carboxamide 5,5-Dioxide] |  |  |  | < 50% | 
Cc1ccc(-n2nc(C(=O)Nc3ccc(NS(C)(=O)=O)cc3)c3c2-c2ccccc2S(=O)(=O)N3C)cc1Cl [2r, 1-(3-Chloro-4-methylphenyl)-4-methyl-N-{4-[(methylsulfonyl)amino]phenyl}-1,4-dihydropyrazolo[4,3-c][1,2]benzothiazine-3-carboxamide 5,5-Dioxide] | displayed antimetabolic effect |  |  | ≥ 50% | 
CN1c2c(C(=O)Nc3ccc(NS(C)(=O)=O)cc3)nn(-c3ccc(Cl)c(C(F)(F)F)c3)c2-c2ccccc2S1(=O)=O [2s, 1-[4-Chloro-3-(trifluoromethyl)phenyl]-4-methyl-N-{4-[(methylsulfonyl)amino]phenyl}-1,4-dihydropyrazolo[4,3-c][1,2]benzothiazine-3-carboxamide 5,5-Dioxide] | displayed antimetabolic effect |  |  | < 50% | 
CN1c2c(C(=O)Nc3ccc(NS(C)(=O)=O)cc3)n[nH]c2-c2ccccc2S1(=O)=O [2u, 4-Methyl-N-{4-[(Methylsulfonyl)amino]phenyl}-1,4-dihydropyrazolo[4,3-c][1,2]benzothiazine-3-carboxamide 5,5-Dioxide] |  |  | totally inactive | < 50% | 
CN1c2c(C(=O)Nc3ccccc3)nn(-c3cccc(F)c3)c2-c2ccccc2S1(=O)=O [compound 3, 1-(3-Fluorophenyl)-4-methyl-N-phenyl-1,4-dihydropyrazolo[4,3-c][1,2]benzothiazine-3-carboxamide 5,5-Dioxide] |  | false positives | inactive |  | 
CN1c2c(C(=O)Nc3ccc(OCC(N)=O)cc3)nn(-c3cccc(F)c3)c2-c2ccccc2S1(=O)=O [compound 4, N-[4-(Amino-2-oxoethoxy)phenyl]-1-(3-fluorophenyl)-4-methyl-1,4-dihydropyrazolo[4,3c][1,2]benzothiazine-3-carboxamide 5,5-Dioxide] | displayed antimetabolic effect |  | inactive |  | 
CN1c2c(NC(=O)c3ccc(NS(C)(=O)=O)cc3)nn(-c3cccc(F)c3)c2-c2ccccc2S1(=O)=O [compound 5, N-[1-(3-Fluorophenyl)-4-methyl-5,5-dioxido-1,4-dihydropyrazolo[4,3-c][1,2]benzothiazin-3-yl]-4-(methylsulfonyl)aminobenzamide] |  |  | inactive |  | 

Source: PMC4203399 (Journal of Medicinal Chemistry, 2014)
